Experimental data reported in patent US11479539B2, “Small molecule modulators of the BTB domain of Keap1” (MedImmune Limited, priority 2017, dated 2022).

Molecular target: Keap1 (Homo sapiens (Human), UniProt Q14145)
Assay: HEK293 ARE luciferase assay
Type: cell-based
Conditions: HEK-293 ARE firefly luciferase transiently transfected cells; 18 h incubation; mean of 1 to 20 individual measurements
Method in brief: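 Keap1 inhibition read as Nrf2-driven luciferase rise: compounds dosed in 10 points up to 100 μM (0.3% DMSO) on HEK-293 ARE luciferase cells, 10,000/well, 18 h at 37 °C, then SteadyGlo luminescence. Scaled between DMSO vehicle and 30 μM tBHQ; values average 1-20 runs.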

Chain of Keap1 (Q14145 whole entry): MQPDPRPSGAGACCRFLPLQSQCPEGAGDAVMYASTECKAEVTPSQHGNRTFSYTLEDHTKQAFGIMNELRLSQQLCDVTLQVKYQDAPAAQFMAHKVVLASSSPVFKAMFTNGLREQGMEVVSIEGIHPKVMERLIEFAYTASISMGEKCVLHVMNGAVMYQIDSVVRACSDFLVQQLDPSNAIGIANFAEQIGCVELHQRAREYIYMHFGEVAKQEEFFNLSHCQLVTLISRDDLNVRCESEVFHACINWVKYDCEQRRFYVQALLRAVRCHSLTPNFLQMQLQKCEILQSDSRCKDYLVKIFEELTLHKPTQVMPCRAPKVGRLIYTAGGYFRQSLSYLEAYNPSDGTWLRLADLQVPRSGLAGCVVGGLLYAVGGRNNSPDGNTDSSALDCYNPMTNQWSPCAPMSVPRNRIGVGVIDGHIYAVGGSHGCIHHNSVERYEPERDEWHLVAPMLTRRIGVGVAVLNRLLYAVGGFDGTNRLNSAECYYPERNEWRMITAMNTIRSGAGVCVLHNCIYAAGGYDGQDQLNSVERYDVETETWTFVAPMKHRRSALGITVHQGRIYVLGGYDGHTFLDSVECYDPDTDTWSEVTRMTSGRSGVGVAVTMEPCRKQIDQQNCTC

Compound	EC50 [nM]
COC1(c2ncc(F)cc2-c2cncc(S(=O)(=O)C(C)C)c2)C=C(C#N)C(=O)C(C)(C)C1 (single isomer, unassigned) [Compound 221, 3-{5-fluoro-5′-[(propan-2-yl)sulfonyl][3,3′-bipyridin]-2-yl}-3-methoxy-5,5-dimethyl-6-oxocyclohex-1-ene-1-carbonitrile]	8
COC1(c2ncc(F)cc2-c2cncc(C(C)(C)C#N)c2)C=C(C#N)C(=O)C(C)(C)C1 (single isomer, unassigned) [Compound 222, 3-[5′-(2-cyanopropan-2-yl)-5-fluoro[3,3′-bipyridin]-2-yl]-3-methoxy-5,5-dimethyl-6-oxocyclohex-1-ene-1-carbonitrile]	6
COC1(c2ncc(F)cc2-c2cncc(OC(F)F)c2)C=C(C#N)C(=O)C(C)(C)C1 (single isomer, unassigned) [Compound 223, 3-[5′-(difluoromethoxy)-5-fluoro[3,3′-bipyridin]-2-yl]-3-methoxy-5,5-dimethyl-6-oxocyclohex-1-ene-1-carbonitrile]	14
COC1(c2ncc(F)cc2Cl)C=C(C#N)C(=O)C(C)(C)C1 (single isomer, unassigned) [Compound 224, 3-(3-chloro-5-fluoropyridin-2-yl)-3-methoxy-5,5-dimethyl-6-oxocyclohex-1-ene-1-carbonitrile]	14
COC1(c2ncc(Cl)cc2Cl)C=C(C#N)C(=O)C(C)(C)C1 (single isomer, unassigned) [Compound 225, 3-(3,5-dichloropyridin-2-yl)-3-methoxy-5,5-dimethyl-6-oxocyclohex-1-ene-1-carbonitrile]	12
COC1(c2ncc(F)cc2-c2ccc3nccn3c2)C=C(C#N)C(=O)C(C)(C)C1 (single isomer, unassigned) [Compound 226, 3-[5-fluoro-3-(imidazo[1,2-a]pyridin-6-yl)pyridin-2-yl]-3-methoxy-5,5-dimethyl-6-oxocyclohex-1-ene-1-carbonitrile]	13
COC1(c2ncc(F)cc2-c2cncc(C(=O)N(C)C)c2)C=C(C#N)C(=O)C(C)(C)C1 (single isomer, unassigned) [Compound 227, 2′-(3-cyano-1-methoxy-5,5-dimethyl-4-oxocyclohex-2-en-1-yl)-5′-fluoro-N,N-dimethyl[3,3′-bipyridine]-5-carboxamide]	15
COC1(c2ncc(F)cc2-c2cnn(CC(F)(F)F)c2)C=C(C#N)C(=O)C(C)(C)C1 (single isomer, unassigned) [Compound 228, 3-{5-fluoro-3-[1-(2,2,2-trifluoroethyl)-1H-pyrazol-4-yl]pyridin-2-yl}-3-methoxy-5,5-dimethyl-6-oxocyclohex-1-ene-1-carbonitrile]	15
COC1(c2ncc(F)cc2-c2ccn3nc(C)nc3c2)C=C(C#N)C(=O)C(C)(C)C1 (single isomer, unassigned) [Compound 229, 3-[5-fluoro-3-(2-methyl[1,2,4]triazolo[1,5-a]pyridin-7-yl)pyridin-2-yl]-3-methoxy-5,5-dimethyl-6-oxocyclohex-1-ene-1-carbonitrile]	10
COC1(c2ncc(F)cc2-c2cnc(C)c(F)c2)C=C(C#N)C(=O)C(C)(C)C1 (single isomer, unassigned) [Compound 230, 3-(5,5′-difluoro-6′-methyl[3,3′-bipyridin]-2-yl)-3-methoxy-5,5-dimethyl-6-oxocyclohex-1-ene-1-carbonitrile]	16
COC1(c2ncc(F)cc2-c2cnn3c2CCC3)C=C(C#N)C(=O)C(C)(C)C1 (single isomer, unassigned) [Compound 231, 3-[3-(5,6-dihydro-4H-pyrrolo[1,2-v]pyrazol-3-yl)-5-fluoropyridin-2-yl]-3-methoxy-5,5-dimethyl-6-oxocyclohex-1-ene-1-carbonitrile]	16
COC1(c2ncc(F)cc2-c2cncc(C3CC3)c2)C=C(C#N)C(=O)C(C)(C)C1 (single isomer, unassigned) [Compound 232, 3-(5′-cyclopropyl-5-fluoro[3,3′-bipyridin]-2-yl)-3-methoxy-5,5-dimethyl-6-oxocyclohex-1-ene-1-carbonitrile]	23
CCc1cncc(-c2cc(F)cnc2C2(OC)C=C(C#N)C(=O)C(C)(C)C2)c1 (single isomer, unassigned) [Compound 233, 3-(5′-ethyl-5-fluoro[3,3′-bipyridin]-2-yl)-3-methoxy-5,5-dimethyl-6-oxocyclohex-1-ene-1-carbonitrile]	6
COc1ncc(C)cc1-c1cc(F)cnc1C1(OC)C=C(C#N)C(=O)C(C)(C)C1 (single isomer, unassigned) [Compound 234, 3-(5-fluoro-2′-methoxy-5′-methyl[3,3′-bipyridin]-2-yl)-3-methoxy-5,5-dimethyl-6-oxocyclohex-1-ene-1-carbonitrile]	9
COC1(c2ncc(F)cc2-c2cncc(S(C)(=O)=O)c2)C=C(C#N)C(=O)C(C)(C)C1 (single isomer, unassigned) [Compound 235, 3-[5-fluoro-5′-(methylsulfonyl)[3,3′-bipyridin]-2-yl)-3-methoxy-5,5-dimethyl-6-oxocyclohex-1-ene-1-carbonitrile]	79
COC1(c2ncc(F)cc2-c2ccnc(C(F)(F)F)c2)C=C(C#N)C(=O)C(C)(C)C1 (single isomer, unassigned) [Compound 236, 3-[5-fluoro-2′-(trifluoromethyl)[3,4′-bipyridin]-2-yl]-3-methoxy-5,5-dimethyl-6-oxocyclohex-1-ene-1-carbonitrile]	17
COc1cncc(-c2cc(F)cnc2C2(OC)C=C(C#N)C(=O)C(C)(C)C2)c1 (single isomer, unassigned) [Compound 237, 3-(5-fluoro-5′-methoxy[3,3′-bipyridin]-2-yl)-3-methoxy-5,5-dimethyl-6-oxocyclohex-1-ene-1-carbonitrile]	20

Compound	EC50 [nM]
COC1(c2ncc(Cl)cc2C(F)F)C=C(C#N)C(=O)C2(CC2)C1 (single isomer, unassigned) [Compound 238, 7-[5-chloro-3-(difluoromethyl)pyridin-2-yl]-7-methoxy-4-oxospiro[2.5]oct-5-ene-5-carbonitrile]	44
COC1(c2cc(C(F)(F)F)ccn2)C=C(C#N)C(=O)C(C)(C)C1 (stereo not shown) [Compound 1, 3-methoxy-5,5-dimethyl-6-oxo-3-[4-(trifluoromethyl)-2-pyridyl]cyclohexene-1-carbonitrile]	408
COC1(c2cccc(Br)n2)C=C(C#N)C(=O)C(C)(C)C1 (stereo not shown) [Compound 2, 3-(6-bromo-2-pyridyl)-3-methoxy-5,5-dimethyl-6-oxo-cyclohexene-1-carbonitrile]	228
COC1(c2ccc(C(F)(F)F)cn2)C=C(C#N)C(=O)C(C)(C)C1 (stereo not shown) [Compound 3, 3-methoxy-5,5-dimethyl-6-oxo-3-[5-(trifluoromethyl)-2-pyridyl]cyclohexene-1-carbonitrile]	424
COC1(c2nccc3ccccc23)C=C(C#N)C(=O)C(C)(C)C1 (stereo not shown) [Compound 4, 3-(1-isoquinolyl)-3-methoxy-5,5-dimethyl-6-oxo-cyclohexene-1-carbonitrile]	1140
CC1(C)CC(O)(c2ncccc2C(F)F)C=C(C#N)C1=O (stereo not shown) [Compound 6, 3-[3-(difluoromethyl)-2-pyridyl]-3-hydroxy-5,5-dimethyl-6-oxo-cyclohexene-1-carbonitrile]	> 10000
COC1(c2ncccc2-c2ccccc2)C=C(C#N)C(=O)C(C)(C)C1 (stereo not shown) [Compound 7, 3-methoxy-5,5-dimethyl-6-oxo-3-(3-phenyl-2-pyridyl)cyclohexene-1-carbonitrile]	82
COC1CN(c2cccc(C3(OC)C=C(C#N)C(=O)C(C)(C)C3)n2)C1 (stereo not shown) [Compound 8, 3-methoxy-3-[6-(3-methoxyazetidin-1-yl)-2-pyridyl]-5,5-dimethyl-6-oxo-cyclohexene-1-carbonitrile]	186
COC1(c2ccccn2)C=C(C#N)C(=O)C(C)(C)C1 (stereo not shown) [Compound 11, 3-methoxy-5,5-dimethyl-6-oxo-3-(2-pyridyl)cyclohexene-1-carbonitrile]	85
COC1(c2cccc(-n3ccnc3C)n2)C=C(C#N)C(=O)C(C)(C)C1 (stereo not shown) [Compound 12, 3-methoxy-5,5-dimethyl-3-[6-(2-methylimidazol-1-yl)-2-pyridyl]-6-oxo-cyclohexene-1-carbonitrile]	119
COC1(c2ccc(C)nc2)C=C(C#N)C(=O)C(C)(C)C1 (stereo not shown) [Compound 16, 3-methoxy-5,5-dimethyl-3-(6-methyl-3-pyridyl)-6-oxo-cyclohexene-1-carbonitrile]	660
COC1(c2cccnc2Cl)C=C(C#N)C(=O)C(C)(C)C1 (stereo not shown) [Compound 18, 3-(2-chloro-3-pyridyl)-3-methoxy-5,5-dimethyl-6-oxo-cyclohexene-1-carbonitrile]	265
COC1(c2ccccc2C(F)(F)F)C=C(C#N)C(=O)C(C)(C)C1 (stereo not shown) [Compound 19, 3-methoxy-5,5-dimethyl-6-oxo-3-[2-(trifluoromethyl)phenyl]cyclohexene-1-carbonitrile]	1240
COC1(c2cccc(C(F)(F)F)n2)C=C(C#N)C(=O)C(C)(C)C1 (stereo not shown) [Compound 20, 3-methoxy-5,5-dimethyl-6-oxo-3-[6-(trifluoromethyl)-2-pyridyl]cyclo-hexene-1-carbonitrile]	126
COC1(c2cccnc2Br)C=C(C#N)C(=O)C(C)(C)C1 (stereo not shown) [Compound 21, 3-(2-bromo-3-pyridyl)-3-methoxy-5,5-dimethyl-6-oxo-cyclohexene-1-carbonitrile]	452
COC1(c2ncccc2Br)C=C(C#N)C(=O)C(C)(C)C1 (stereo not shown) [Compound 22, 3-(3-bromo-2-pyridyl)-3-methoxy-5,5-dimethyl-6-oxo-cyclohexene-1-carbonitrile]	45
CC1(C)CC(O)(c2ccc(C(F)(F)F)cn2)C=C(C#N)C1=O (stereo not shown) [Compound 24, 3-hydroxy-5,5-dimethyl-6-oxo-3-[5-(trifluoromethyl)-2-pyridyl]cyclo-hexene-1-carbonitrile]	> 10000
